Source: patent US6689773B2, “Uracil substituted phenyl sulfamoyl carboxamides” (BASF Aktiengesellschaft, priority 2000, dated 2004)

How the values were obtained:
Assay type in all cases: in vivo
[1] = tested on: IPOHE, Morningglory, Ivyleaf, Ipomoea hederacea, (L)Jacq.; assay: Preemergence herbicidal evaluation (Example 148); conditions: rating scale 0-9, two to four weeks after treatment
Method: (§1) The scale is based upon a visual observation of plant stand, vigor, malformation, size, chlorosis and overall plant appearance as compared with a control.
(§2) The herbicidal activity of the compounds of the present invention was evaluated by the following tests wherein the seeds of a variety of monocotyledonous and dicotyledonous plants were separately mixed with potting soil and planted on top of approximately one inch of soil in separate pint cups. After planting, the cups were sprayed with the selected aqueous acetone solution containing test compound in sufficient quantity to provide the equivalent of about 0.125 to 0.250 kg per hectare of test compound per cup. The treated cups were then placed on greenhouse benches, watered and cared for in accordance with conventional greenhouse procedures. From two to four weeks after treatment, the tests were terminated and each cup was examined and rated according to the rating system provided in Example 94. When more than one test was performed for a given compound, the data were averaged.

[2] = tested on: TRZAW, Winter wheat, Tritium Aestivum, L. (Winter); assay: Preemergence herbicidal evaluation (Example 148); conditions: rating scale 0-9, two to four weeks after treatment
Method: as §1, §2

[3] = tested on: DIGSA, Crabgrass, (Hairy) L, Digitaria sanguinalis, (L)Scop; assay: Preemergence herbicidal evaluation (Example 148); conditions: rating scale 0-9, two to four weeks after treatment
Method: as §1, §2

[4] = tested on: ZEAMX, Field corn, Zea mays L.; assay: Preemergence herbicidal evaluation (Example 148); conditions: rating scale 0-9, two to four weeks after treatment
Method: as §1, §2

[5] = tested on: ABUTH, Velvetleaf, Abutilon theophrasti, Medic.; assay: Preemergence herbicidal evaluation (Example 148); conditions: rating scale 0-9, two to four weeks after treatment
Method: as §1, §2

[6] = tested on: SETVI, Green foxtail, Setaria viridis, (L.)Beau; assay: Preemergence herbicidal evaluation (Example 148); conditions: rating scale 0-9, two to four weeks after treatment
Method: as §1, §2

[7] = tested on: GLXMA, Soybean, Glycine max, (L.) Merr.; assay: Preemergence herbicidal evaluation (Example 148); conditions: rating scale 0-9, two to four weeks after treatment
Method: as §1, §2

[8] = tested on: ECHCG, Barnyardgrass, Echinochloa crusgalli, (L.)Beau; assay: Preemergence herbicidal evaluation (Example 148); conditions: rating scale 0-9, two to four weeks after treatment
Method: as §1, §2

[9] = tested on: AMBEL, Ragweed, Common, Ambrosia artemiisifolia, L.; assay: Preemergence herbicidal evaluation (Example 148); conditions: rating scale 0-9, two to four weeks after treatment
Method: as §1, §2

[10] = tested on: ALOMY, Blackgrass, Alopecurus myosuroides; assay: Preemergence herbicidal evaluation (Example 148); conditions: rating scale 0-9, two to four weeks after treatment
Method: as §1, §2

[11] = tested on: CHEAL, Lambsquarters, Chenopodium album, L. Common; assay: Preemergence herbicidal evaluation (Example 148); conditions: rating scale 0-9, two to four weeks after treatment
Method: as §1, §2

[12] = tested on: IPOHE, Morningglory, Ivyleaf, Ipomoea hederacea, (L)Jacq.; assay: Postemergence herbicidal evaluation (Example 147); conditions: rating scale 0-9, two to three weeks after treatment
Method: (§3) Seedling plants were grown in jiffy flats for about two weeks. The test compounds were dispersed in 80/20 acetone/water mixtures containing 1.0% SUN-IT®II, a methylated seed oil, in sufficient quantities to provide the equivalent of about 0.016 to 0.032 kg per hectare of active compound when applied to the plants through a spray nozzle operating at 40 psi for a predetermined time. After spraying, the plants were placed on greenhouse benches and were cared for in accordance with conventional greenhouse procedures. Approximately two to three weeks after treatment, the seedling plants were examined and rated according to the rating scale (0-9) set forth below. Where more than one test is involved for a given compound, the data are averaged. [table] The scale is based upon a visual observation of plant stand, vigor, malformation, size, chlorosis and overall plant appearance as compared with a control. Plant species employed in these evaluations are reported by header abbreviation, common name and scientific name. [table]

[13] = tested on: TRZAW, Winter wheat, Tritium Aestivum, L. (Winter); assay: Postemergence herbicidal evaluation (Example 147); conditions: rating scale 0-9, two to three weeks after treatment
Method: as §3

[14] = tested on: DIGSA, Crabgrass, (Hairy) L, Digitaria sanguinalis, (L)Scop; assay: Postemergence herbicidal evaluation (Example 147); conditions: rating scale 0-9, two to three weeks after treatment
Method: as §3

[15] = tested on: ZEAMX, Field corn, Zea mays L.; assay: Postemergence herbicidal evaluation (Example 147); conditions: rating scale 0-9, two to three weeks after treatment
Method: as §3

[16] = tested on: ABUTH, Velvetleaf, Abutilon theophrasti, Medic.; assay: Postemergence herbicidal evaluation (Example 147); conditions: rating scale 0-9, two to three weeks after treatment
Method: as §3

[17] = tested on: SETVI, Green foxtail, Setaria viridis, (L.)Beau; assay: Postemergence herbicidal evaluation (Example 147); conditions: rating scale 0-9, two to three weeks after treatment
Method: as §3

[18] = tested on: GLXMA, Soybean, Glycine max, (L.) Merr.; assay: Postemergence herbicidal evaluation (Example 147); conditions: rating scale 0-9, two to three weeks after treatment
Method: as §3

[19] = tested on: ECHCG, Barnyardgrass, Echinochloa crusgalli, (L.)Beau; assay: Postemergence herbicidal evaluation (Example 147); conditions: rating scale 0-9, two to three weeks after treatment
Method: as §3

[20] = tested on: AMBEL, Ragweed, Common, Ambrosia artemiisifolia, L.; assay: Postemergence herbicidal evaluation (Example 147); conditions: rating scale 0-9, two to three weeks after treatment
Method: as §3

[21] = tested on: ALOMY, Blackgrass, Alopecurus myosuroides; assay: Postemergence herbicidal evaluation (Example 147); conditions: rating scale 0-9, two to three weeks after treatment
Method: as §3

[22] = tested on: CHEAL, Lambsquarters, Chenopodium album, L. Common; assay: Postemergence herbicidal evaluation (Example 147); conditions: rating scale 0-9, two to three weeks after treatment
Method: as §3

[23] = tested on: XANST, Cocklebur, Xanthium strumariam; assay: Postemergence herbicidal evaluation (Example 147); conditions: rating scale 0-9, two to three weeks after treatment
Method: as §3

[24] = tested on: XANST, Cocklebur, Xanthium strumariam; assay: Preemergence herbicidal evaluation (Example 148); conditions: rating scale 0-9, two to four weeks after treatment
Method: as §1, §2

CCN(C)S(=O)(=O)NC(=O)c1cc(-n2c(=O)cc(C(F)(F)F)n(C)c2=O)c(F)cc1Cl [Example 66]
Preemergence herbicidal rating IPOHE ([1]; rate 0.125 kg/ha): 9.0
Preemergence herbicidal rating IPOHE ([1]; rate 0.25 kg/ha): 9.0
Preemergence herbicidal rating TRZAW ([2]; rate 0.125 kg/ha): 1.0
Preemergence herbicidal rating TRZAW ([2]; rate 0.25 kg/ha): 1.0
Preemergence herbicidal rating DIGSA ([3]; rate 0.125 kg/ha): 4.0
Preemergence herbicidal rating DIGSA ([3]; rate 0.25 kg/ha): 8.0
Preemergence herbicidal rating ZEAMX ([4]; rate 0.125 kg/ha): 1.0
Preemergence herbicidal rating ZEAMX ([4]; rate 0.25 kg/ha): 2.0
Preemergence herbicidal rating ABUTH ([5]; rate 0.125 kg/ha): 9.0
Preemergence herbicidal rating ABUTH ([5]; rate 0.25 kg/ha): 9.0
Preemergence herbicidal rating SETVI ([6]; rate 0.125 kg/ha): 4.0
Preemergence herbicidal rating SETVI ([6]; rate 0.25 kg/ha): 6.0
Preemergence herbicidal rating GLXMA ([7]; rate 0.125 kg/ha): 0.0
Preemergence herbicidal rating ECHCG ([8]; rate 0.125 kg/ha): 4.0
Preemergence herbicidal rating ECHCG ([8]; rate 0.25 kg/ha): 8.0
Preemergence herbicidal rating AMBEL ([9]; rate 0.125 kg/ha): 9.0
Preemergence herbicidal rating AMBEL ([9]; rate 0.25 kg/ha): 9.0
Preemergence herbicidal rating ALMOY ([10]; rate 0.125 kg/ha): 0.0
Preemergence herbicidal rating ALMOY ([10]; rate 0.25 kg/ha): 2.0
Preemergence herbicidal rating CHEAL ([11]; rate 0.125 kg/ha): 9.0
Preemergence herbicidal rating CHEAL ([11]; rate 0.25 kg/ha): 9.0
Postemergence herbicidal rating IPOHE ([12]; rate 0.016 kg/ha): 9.0
Postemergence herbicidal rating IPOHE ([12]; rate 0.032 kg/ha): 9.0
Postemergence herbicidal rating TRZAW ([13]; rate 0.016 kg/ha): 5.0
Postemergence herbicidal rating TRZAW ([13]; rate 0.032 kg/ha): 6.5
Postemergence herbicidal rating DIGSA ([14]; rate 0.016 kg/ha): 5.0
Postemergence herbicidal rating DIGSA ([14]; rate 0.032 kg/ha): 6.0
Postemergence herbicidal rating ZEAMX ([15]; rate 0.016 kg/ha): 7.0
Postemergence herbicidal rating ZEAMX ([15]; rate 0.032 kg/ha): 7.5
Postemergence herbicidal rating ABUTH ([16]; rate 0.016 kg/ha): 9.0
Postemergence herbicidal rating ABUTH ([16]; rate 0.032 kg/ha): 9.0
Postemergence herbicidal rating SETVI ([17]; rate 0.016 kg/ha): 8.0
Postemergence herbicidal rating SETVI ([17]; rate 0.032 kg/ha): 9.0
Postemergence herbicidal rating GLXMA ([18]; rate 0.016 kg/ha): 8.0
Postemergence herbicidal rating GLXMA ([18]; rate 0.032 kg/ha): 9.0
Postemergence herbicidal rating ECHCG ([19]; rate 0.016 kg/ha): 8.0
Postemergence herbicidal rating ECHCG ([19]; rate 0.032 kg/ha): 8.0
Postemergence herbicidal rating AMBEL ([20]; rate 0.016 kg/ha): 9.0
Postemergence herbicidal rating AMBEL ([20]; rate 0.032 kg/ha): 9.0
Postemergence herbicidal rating ALMOY ([21]; rate 0.016 kg/ha): 1.0
Postemergence herbicidal rating ALMOY ([21]; rate 0.032 kg/ha): 2.0
Postemergence herbicidal rating CHEAL ([22]; rate 0.016 kg/ha): 8.0
Postemergence herbicidal rating CHEAL ([22]; rate 0.032 kg/ha): 9.0
Postemergence herbicidal rating XANST ([23]; rate 0.016 kg/ha): 9.0
Postemergence herbicidal rating XANST ([23]; rate 0.032 kg/ha): 9.0

COc1cccc(CN(C)S(=O)(=O)NC(=O)c2cc(-n3c(=O)cc(C(F)(F)F)n(C)c3=O)c(F)cc2Cl)c1 [Example 70]
Preemergence herbicidal rating IPOHE ([1]; rate 0.125 kg/ha): 9.0
Preemergence herbicidal rating IPOHE ([1]; rate 0.25 kg/ha): 9.0
Preemergence herbicidal rating TRZAW ([2]; rate 0.125 kg/ha): 0.0
Preemergence herbicidal rating TRZAW ([2]; rate 0.25 kg/ha): 1.0
Preemergence herbicidal rating DIGSA ([3]; rate 0.125 kg/ha): 2.0
Preemergence herbicidal rating DIGSA ([3]; rate 0.25 kg/ha): 5.0
Preemergence herbicidal rating ZEAMX ([4]; rate 0.125 kg/ha): 0.0
Preemergence herbicidal rating ZEAMX ([4]; rate 0.25 kg/ha): 0.0
Preemergence herbicidal rating ABUTH ([5]; rate 0.125 kg/ha): 9.0
Preemergence herbicidal rating ABUTH ([5]; rate 0.25 kg/ha): 9.0
Preemergence herbicidal rating SETVI ([6]; rate 0.125 kg/ha): 3.0
Preemergence herbicidal rating SETVI ([6]; rate 0.25 kg/ha): 5.0
Preemergence herbicidal rating GLXMA ([7]; rate 0.125 kg/ha): 1.0
Preemergence herbicidal rating GLXMA ([7]; rate 0.25 kg/ha): 3.0
Preemergence herbicidal rating ECHCG ([8]; rate 0.125 kg/ha): 2.0
Preemergence herbicidal rating ECHCG ([8]; rate 0.25 kg/ha): 7.0
Preemergence herbicidal rating AMBEL ([9]; rate 0.125 kg/ha): 9.0
Preemergence herbicidal rating AMBEL ([9]; rate 0.25 kg/ha): 9.0
Preemergence herbicidal rating ALMOY ([10]; rate 0.125 kg/ha): 0.0
Preemergence herbicidal rating ALMOY ([10]; rate 0.25 kg/ha): 0.0
Preemergence herbicidal rating CHEAL ([11]; rate 0.125 kg/ha): 8.0
Preemergence herbicidal rating CHEAL ([11]; rate 0.25 kg/ha): 9.0
Preemergence herbicidal rating XANST ([24]; rate 0.125 kg/ha): 8.0
Preemergence herbicidal rating XANST ([24]; rate 0.25 kg/ha): 9.0
Postemergence herbicidal rating IPOHE ([12]; rate 0.016 kg/ha): 9.0
Postemergence herbicidal rating IPOHE ([12]; rate 0.032 kg/ha): 9.0
Postemergence herbicidal rating TRZAW ([13]; rate 0.016 kg/ha): 4.5
Postemergence herbicidal rating TRZAW ([13]; rate 0.032 kg/ha): 5.0
Postemergence herbicidal rating DIGSA ([14]; rate 0.016 kg/ha): 2.0
Postemergence herbicidal rating DIGSA ([14]; rate 0.032 kg/ha): 3.0
Postemergence herbicidal rating ZEAMX ([15]; rate 0.016 kg/ha): 7.0
Postemergence herbicidal rating ZEAMX ([15]; rate 0.032 kg/ha): 7.0
Postemergence herbicidal rating ABUTH ([16]; rate 0.016 kg/ha): 9.0
Postemergence herbicidal rating ABUTH ([16]; rate 0.032 kg/ha): 9.0
Postemergence herbicidal rating SETVI ([17]; rate 0.016 kg/ha): 4.0
Postemergence herbicidal rating SETVI ([17]; rate 0.032 kg/ha): 5.0
Postemergence herbicidal rating GLXMA ([18]; rate 0.016 kg/ha): 6.5
Postemergence herbicidal rating GLXMA ([18]; rate 0.032 kg/ha): 7.5
Postemergence herbicidal rating ECHCG ([19]; rate 0.016 kg/ha): 4.0
Postemergence herbicidal rating ECHCG ([19]; rate 0.032 kg/ha): 8.0
Postemergence herbicidal rating AMBEL ([20]; rate 0.016 kg/ha): 5.0
Postemergence herbicidal rating AMBEL ([20]; rate 0.032 kg/ha): 7.0
Postemergence herbicidal rating ALMOY ([21]; rate 0.016 kg/ha): 1.0
Postemergence herbicidal rating ALMOY ([21]; rate 0.032 kg/ha): 1.0
Postemergence herbicidal rating CHEAL ([22]; rate 0.016 kg/ha): 6.0
Postemergence herbicidal rating CHEAL ([22]; rate 0.032 kg/ha): 7.0
